Reference: BindingDB's records for doi:10.1016/j.bmcl.2021.127992 (Kyung Hee University, 2021)

molecular target: T1, Prostaglandin E synthase (Homo sapiens, UniProt O14684); assay: Inhibition of mPGES-1 in human A549 cells assessed as reduction in IL-1beta stimulated […] production
T1 sequence (O14684 whole entry): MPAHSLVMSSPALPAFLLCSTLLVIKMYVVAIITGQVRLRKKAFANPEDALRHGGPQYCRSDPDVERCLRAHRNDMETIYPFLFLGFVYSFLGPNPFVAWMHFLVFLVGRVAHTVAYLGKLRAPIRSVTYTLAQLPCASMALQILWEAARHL

Row | IC50 | Compound
1 | 0.25 µM | O=C(Oc1ccc(OCc2ccccc2)cc1)N(Nc1ccccc1)S(=O)(=O)c1ccc(Cl)cc1
2 | 2 µM | O=C(Oc1ccc(OCc2ccccc2)cc1)N(Cc1ccccc1)S(=O)(=O)c1ccc(Cl)cc1

Row | Compound | IC50
3 | O=C(Nc1ccc(OCCCCc2ccccc2)cc1)N(Cc1ccccc1)S(=O)(=O)c1ccc(Cl)cc1 | 1 µM
